Tests used:
Test in all cases: cells
SF-126 = assay type: functional, cell-based, Homo sapiens; conditions: Homo sapiens, SF-126;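 also: growth inhibition of human SF126 cells, read out with a cell viability assay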
Description: SANGER: Inhibition of human SF126 cell growth in a cell viability assay.

HLE = assay type: functional, cell-based, Homo sapiens; conditions: Homo sapiens, HLE;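 also: growth inhibition of human HLE cells, read out by a cell viability assay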
Description: SANGER: Inhibition of human HLE cell growth in a cell viability assay.

TE-6 = assay type: functional, cell-based, Homo sapiens; conditions: Homo sapiens, TE-6;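 also: growth inhibition of TE-6 cells, read out with a cell viability assay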
Description: SANGER: Inhibition of human TE-6 cell growth in a cell viability assay.

VMRC-RCZ = assay type: functional, cell-based; conditions: Homo sapiens;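 also: growth inhibition measured with a cell viability assay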
Description: SANGER: Inhibition of human VMRC-RCZ cell growth in a cell viability assay.

786-0 = assay type: functional, cell-based, Homo sapiens; conditions: Homo sapiens
Description: SANGER: Inhibition of human 786-0 cell growth in a cell viability assay.

HT-3 = assay type: functional, cell-based, Homo sapiens; conditions: Homo sapiens, HT-3;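 also: growth inhibition measured with a cell viability readout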
Description: SANGER: Inhibition of human HT-3 cell growth in a cell viability assay.

K562 = assay type: functional, cell-based; conditions: Homo sapiens
Description: SANGER: Inhibition of human K-562 cell growth in a cell viability assay.

SBC-5 = assay type: functional, cell-based, Homo sapiens; conditions: Homo sapiens, SBC-5;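 also: cell viability assay read-out, IC50 is the concentration that inhibits growth of the cells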
Description: SANGER: Inhibition of human SBC-5 cell growth in a cell viability assay.

MFH-ino = assay type: functional, cell-based; conditions: Homo sapiens;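 also: growth inhibition of human MFH-ino cells, read out by a cell viability assay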
Description: SANGER: Inhibition of human MFH-ino cell growth in a cell viability assay.

G-402 = assay type: functional, cell-based, Homo sapiens; conditions: Homo sapiens, G-402
Description: SANGER: Inhibition of human G-402 cell growth in a cell viability assay.

ES4 = assay type: functional, cell-based, Homo sapiens; conditions: Homo sapiens, ES4;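 also: growth inhibition of human ES4 cells, read out by a cell viability assay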
Description: SANGER: Inhibition of human ES4 cell growth in a cell viability assay.

HH = assay type: functional, cell-based; conditions: Homo sapiens
Description: SANGER: Inhibition of human HH cell growth in a cell viability assay.

EW-1 = assay type: functional, cell-based, Homo sapiens; conditions: Homo sapiens, EW-1;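 also: growth inhibition of the human EW-1 cell line, read out by a cell viability assay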
Description: SANGER: Inhibition of human EW-1 cell growth in a cell viability assay.

NB10 = assay type: functional, cell-based, Homo sapiens; conditions: Homo sapiens, NB10;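 also: growth inhibition of NB10 cells, read out by a cell viability assay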
Description: SANGER: Inhibition of human NB10 cell growth in a cell viability assay.

MFE-280 = assay type: functional, cell-based, Homo sapiens; conditions: Homo sapiens, MFE-280;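 also: growth inhibition of MFE-280 cells, determined with a cell viability readout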
Description: SANGER: Inhibition of human MFE-280 cell growth in a cell viability assay.

PANC-03-27 = assay type: functional, cell-based, Homo sapiens; conditions: Homo sapiens, PANC-03-27
Description: SANGER: Inhibition of human PANC-03-27 cell growth in a cell viability assay.

SW 954 = assay type: functional, cell-based, Homo sapiens; conditions: Homo sapiens, SW 954;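 also: growth inhibition of SW954 human cancer cells, read out as cell viability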
Description: SANGER: Inhibition of human SW954 cell growth in a cell viability assay.

SW-620 = assay type: functional, cell-based, Homo sapiens; conditions: Homo sapiens, SW-620;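 also: growth inhibition of human SW-620 cells, measured by a cell viability assay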
Description: SANGER: Inhibition of human SW620 cell growth in a cell viability assay.

SW 962 = assay type: functional, cell-based, Homo sapiens; conditions: Homo sapiens, SW 962;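 also: growth inhibition of human SW962 cells, read out by a cell viability assay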
Description: SANGER: Inhibition of human SW962 cell growth in a cell viability assay.

CWR22R = assay type: functional, cell-based, Homo sapiens; conditions: Homo sapiens, 22Rv1;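 also: growth inhibition of 22Rv1 cells, read out with a cell viability assay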
Description: SANGER: Inhibition of human 22RV1 cell growth in a cell viability assay.

MG-63 = assay type: functional, cell-based, Homo sapiens; conditions: Homo sapiens, MG-63;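 also: growth inhibition of human MG-63 cells, read out with a cell viability assay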
Description: SANGER: Inhibition of human MG-63 cell growth in a cell viability assay.

SF-268 = assay type: functional, cell-based, Homo sapiens; conditions: Homo sapiens, SF-268;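 also: growth inhibition of SF-268 cells determined with a cell viability assay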
Description: SANGER: Inhibition of human SF268 cell growth in a cell viability assay.

TGBC1TKB = assay type: functional, cell-based, Homo sapiens; conditions: Homo sapiens, TGBC1TKB;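 also: growth inhibition of TGBC1TKB cells, read out by a cell viability assay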
Description: SANGER: Inhibition of human TGBC1TKB cell growth in a cell viability assay.

G-401 = assay type: functional, cell-based, Homo sapiens; conditions: Homo sapiens, G-401
Description: SANGER: Inhibition of human G-401 cell growth in a cell viability assay.

TYK-nu = assay type: functional, cell-based, Homo sapiens; conditions: Homo sapiens, TYK-nu;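 also: growth inhibition of human TYK-nu cells, read out by a cell viability assay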
Description: SANGER: Inhibition of human TYK-nu cell growth in a cell viability assay.

LC-2-ad = assay type: functional, cell-based, Homo sapiens; conditions: Homo sapiens, LC-2-ad;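 also: growth inhibition of human LC-2-ad cells, read out with a cell viability assay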
Description: SANGER: Inhibition of human LC-2-ad cell growth in a cell viability assay.

A388 = assay type: functional, cell-based, Homo sapiens; conditions: Homo sapiens, A388;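 also: growth inhibition of human A388 cells, read out with a cell viability assay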
Description: SANGER: Inhibition of human A388 cell growth in a cell viability assay.

CHP-212 = assay type: functional, cell-based, Homo sapiens; conditions: Homo sapiens, CHP-212
Description: SANGER: Inhibition of human CHP-212 cell growth in a cell viability assay.

C2BBe1 = assay type: functional, cell-based, Homo sapiens; conditions: Homo sapiens, C2BBe1;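 also: growth inhibition of C2BBe1 cells, read out through a viability assay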
Description: SANGER: Inhibition of human C2BBe1 cell growth in a cell viability assay.

BHT-101 = assay type: functional, cell-based, Homo sapiens; conditions: Homo sapiens, BHT-101
Description: SANGER: Inhibition of human BHT-101 cell growth in a cell viability assay.

NCI-H2405 = assay type: functional, cell-based, Homo sapiens; conditions: Homo sapiens, NCI-H2405;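 also: growth inhibition of the human cell line, read out with a cell viability assay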
Description: SANGER: Inhibition of human NCI-H2405 cell growth in a cell viability assay.

FTC-133 = assay type: functional, cell-based, Homo sapiens; conditions: Homo sapiens, FTC-133
IGR-1 = assay type: functional, cell-based, Homo sapiens; conditions: Homo sapiens, IGR-1;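 also: growth inhibition of human IGR-1 cells, read out with a cell viability assay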
Description: SANGER: Inhibition of human IGR-1 cell growth in a cell viability assay.

MKN-45 = assay type: functional, cell-based, Homo sapiens; conditions: Homo sapiens, MKN-45;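 also: growth inhibition of human MKN-45 cells, measured with a cell viability assay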
Description: SANGER: Inhibition of human MKN45 cell growth in a cell viability assay.

ES3 = assay type: functional, cell-based, Homo sapiens; conditions: Homo sapiens, ES3;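 also: growth inhibition of ES3 cells, read out with a cell viability assay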
Description: SANGER: Inhibition of human ES3 cell growth in a cell viability assay.

SN12C = assay type: functional, cell-based, Homo sapiens; conditions: Homo sapiens, SN12C;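 also: growth inhibition of human SN12C cells, measured by a cell viability assay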
Description: SANGER: Inhibition of human SN12C cell growth in a cell viability assay.

A498 = assay type: functional, cell-based, Homo sapiens; conditions: Homo sapiens, A498;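 also: growth inhibition of human A498 cells, read out with a cell viability assay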
Description: SANGER: Inhibition of human A498 cell growth in a cell viability assay.

D283 Med = assay type: functional, cell-based, Homo sapiens; conditions: Homo sapiens, D283 Med
Description: SANGER: Inhibition of human D-283MED cell growth in a cell viability assay.

BFTC-905 = assay type: functional, cell-based, Homo sapiens; conditions: Homo sapiens, BFTC-905
Description: SANGER: Inhibition of human BFTC-905 cell growth in a cell viability assay.

Hs-578T = assay type: functional, cell-based, Homo sapiens; conditions: Homo sapiens, Hs-578T
Description: SANGER: Inhibition of human Hs-578-T cell growth in a cell viability assay.

NH-12 = assay type: functional, cell-based, Homo sapiens; conditions: Homo sapiens, NH-12;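 also: growth inhibition of NH-12 cells, read out with a cell viability assay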
Description: SANGER: Inhibition of human NH-12 cell growth in a cell viability assay.

HAL-01 = assay type: functional, cell-based; conditions: Homo sapiens;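 also: growth inhibition of human HAL-01 cells, read out with a cell viability assay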
Description: SANGER: Inhibition of human HAL-01 cell growth in a cell viability assay.

QIMR-WIL = assay type: functional, cell-based; conditions: Homo sapiens;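 also: growth inhibition of QIMR-WIL cells, read out with a cell viability assay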
Description: SANGER: Inhibition of human QIMR-WIL cell growth in a cell viability assay.

A4-Fuk = assay type: functional, cell-based; conditions: Homo sapiens;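 also: growth inhibition of A4-Fuk cells, read out by a cell viability assay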
Description: SANGER: Inhibition of human A4-Fuk cell growth in a cell viability assay.

SKG-IIIa = assay type: functional, cell-based, Homo sapiens; conditions: Homo sapiens, SKG-IIIa;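 also: cell growth inhibition, read out with a cell viability assay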
Description: SANGER: Inhibition of human SKG-IIIa cell growth in a cell viability assay.

NCI-H82 = assay type: functional, cell-based; conditions: Homo sapiens;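 also: growth inhibition of NCI-H82 cells, measured with a cell viability readout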
Description: SANGER: Inhibition of human NCI-H82 cell growth in a cell viability assay.

EFO-21 = assay type: functional, cell-based, Homo sapiens; conditions: Homo sapiens, EFO-21;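 also: growth inhibition of EFO-21 cells measured with a viability assay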
Description: SANGER: Inhibition of human EFO-21 cell growth in a cell viability assay.

ME-180 = assay type: functional, cell-based; conditions: Homo sapiens;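 also: cell viability assay measuring growth inhibition of ME-180 cells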
Description: SANGER: Inhibition of human ME-180 cell growth in a cell viability assay.

NCI-H441 = assay type: functional, cell-based; conditions: Homo sapiens;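 also: growth inhibition of NCI-H441 cells, read out with a cell viability assay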
Description: SANGER: Inhibition of human NCI-H441 cell growth in a cell viability assay.

NB5 = assay type: functional, cell-based, Homo sapiens; conditions: Homo sapiens, NB5;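 also: growth inhibition of NB5 cells, read out as cell viability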
Description: SANGER: Inhibition of human NB5 cell growth in a cell viability assay.

CAL-120 = assay type: functional, cell-based, Homo sapiens; conditions: Homo sapiens, CAL-120;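 also: cell growth inhibition, read out as cell viability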
Description: SANGER: Inhibition of human CAL-120 cell growth in a cell viability assay.

COc1cc([C@@H]2c3cc4c(cc3[C@@H](O[C@@H]3O[C@@H]5CO[C@@H](C)O[C@H]5[C@H](O)[C@H]3O)[C@H]3COC(=O)[C@H]23)OCO4)cc(OC)c1O [ETOPOSIDE]
IC50 (SF-126): 1440 nM
IC50 (HLE): 534 nM
IC50 (TE-6): > 16000 nM
IC50 (VMRC-RCZ): 1970 nM
IC50 (786-0): 492 nM
IC50 (HT-3): 1130 nM
IC50 (K562): > 16000 nM
IC50 (SBC-5): 303 nM
IC50 (MFH-ino): 751 nM
IC50 (G-402): 898 nM
IC50 (ES4): 521 nM
IC50 (HH): 4440 nM
IC50 (EW-1): 1460 nM
IC50 (NB10): 16000 nM
IC50 (MFE-280): > 16000 nM
IC50 (PANC-03-27): 1640 nM
IC50 (SW 954): 1960 nM
IC50 (SW-620): 384 nM
IC50 (SW 962): > 16000 nM
IC50 (CWR22R): 1530 nM
IC50 (MG-63): 1180 nM
IC50 (SF-268): 2550 nM
IC50 (TGBC1TKB): > 16000 nM
IC50 (G-401): 1440 nM
IC50 (TYK-nu): 2410 nM
IC50 (LC-2-ad): 2060 nM
IC50 (A388): 3330 nM
IC50 (CHP-212): 1410 nM
IC50 (C2BBe1): > 16000 nM
IC50 (BHT-101): 3110 nM
IC50 (NCI-H2405): 2440 nM
IC50 (FTC-133): 3590 nM
IC50 (IGR-1): 1590 nM
IC50 (MKN-45): 1870 nM
IC50 (ES3): 628 nM
IC50 (SN12C): 1880 nM
IC50 (A498): > 16000 nM
IC50 (D283 Med): 2200 nM
IC50 (BFTC-905): 426 nM
IC50 (Hs-578T): > 16000 nM
IC50 (NH-12): 672 nM
IC50 (HAL-01): 3800 nM
IC50 (QIMR-WIL): 155 nM
IC50 (A4-Fuk): 841 nM
IC50 (SKG-IIIa): > 16000 nM
IC50 (NCI-H82): > 16000 nM
IC50 (EFO-21): 11900 nM
IC50 (ME-180): 824 nM
IC50 (NCI-H441): 11200 nM
IC50 (NB5): > 16000 nM
IC50 (CAL-120): 15600 nM

C[C@]1(O)C[C@@H](c2nc(-c3ccc4ccc(-c5ccccc5)nc4c3)c3c(N)nccn32)C1 [LINSITINIB]
IC50 (SF-126): > 2560 nM
IC50 (HLE): > 2560 nM
IC50 (TE-6): > 2560 nM
IC50 (VMRC-RCZ): > 2560 nM
IC50 (786-0): > 2560 nM
IC50 (HT-3): > 2560 nM
IC50 (K562): > 2560 nM
IC50 (SBC-5): > 2560 nM
IC50 (MFH-ino): > 2560 nM
IC50 (G-402): > 2560 nM
IC50 (ES4): 410 nM
IC50 (HH): > 2560 nM
IC50 (EW-1): 85.8 nM
IC50 (NB10): 454 nM
IC50 (MFE-280): > 2560 nM
IC50 (PANC-03-27): > 2560 nM
IC50 (SW 954): > 2560 nM
IC50 (SW-620): > 2560 nM
IC50 (SW 962): > 2560 nM
IC50 (CWR22R): > 2560 nM
IC50 (MG-63): > 2560 nM
IC50 (SF-268): > 2560 nM
IC50 (TGBC1TKB): > 2560 nM
IC50 (G-401): 182 nM
IC50 (TYK-nu): > 2560 nM
IC50 (LC-2-ad): 1740 nM
IC50 (A388): > 2560 nM
IC50 (CHP-212): > 2560 nM
IC50 (C2BBe1): > 2560 nM
IC50 (BHT-101): > 2560 nM
IC50 (NCI-H2405): > 2560 nM
IC50 (FTC-133): > 2560 nM
IC50 (IGR-1): > 2560 nM
IC50 (MKN-45): > 2560 nM
IC50 (ES3): 1120 nM
IC50 (SN12C): > 2560 nM
IC50 (A498): > 2560 nM
IC50 (D283 Med): > 2560 nM
IC50 (BFTC-905): 468 nM
IC50 (Hs-578T): > 2560 nM
IC50 (NH-12): 760 nM
IC50 (HAL-01): > 2560 nM
IC50 (QIMR-WIL): > 2560 nM
IC50 (A4-Fuk): 28.1 nM
IC50 (SKG-IIIa): > 2560 nM
IC50 (NCI-H82): > 2560 nM
IC50 (EFO-21): > 2560 nM
IC50 (ME-180): > 2560 nM
IC50 (NCI-H441): > 2560 nM
IC50 (NB5): > 2560 nM
IC50 (CAL-120): > 2560 nM

CCC1=C[C@@H]2CN(C1)Cc1c([nH]c3ccccc13)[C@@](C(=O)OC)(c1cc3c(cc1OC)N(C)[C@H]1[C@@](O)(C(=O)OC)[C@H](OC(C)=O)[C@]4(CC)C=CCN5CC[C@]31[C@@H]54)C2 [VINORELBINE]
IC50 (SF-126): > 64 nM
IC50 (HLE): 10.2 nM
IC50 (TE-6): > 64 nM
IC50 (VMRC-RCZ): 18.8 nM
IC50 (786-0): 2.99 nM
IC50 (HT-3): > 64 nM
IC50 (K562): > 64 nM
IC50 (SBC-5): 2.08 nM
IC50 (MFH-ino): 5.6 nM
IC50 (G-402): 32.1 nM
IC50 (ES4): > 64 nM
IC50 (HH): 8.88 nM
IC50 (EW-1): 3.93 nM
IC50 (NB10): > 64 nM
IC50 (MFE-280): > 64 nM
IC50 (PANC-03-27): 5.95 nM
IC50 (SW 954): 5.98 nM
IC50 (SW-620): 8.52 nM
IC50 (SW 962): 27.8 nM
IC50 (CWR22R): 8.79 nM
IC50 (MG-63): 2.94 nM
IC50 (SF-268): 16.3 nM
IC50 (TGBC1TKB): > 64 nM
IC50 (G-401): 7.87 nM
IC50 (TYK-nu): > 64 nM
IC50 (LC-2-ad): 4.98 nM
IC50 (A388): 6.07 nM
IC50 (CHP-212): 24.6 nM
IC50 (C2BBe1): > 64 nM
IC50 (BHT-101): > 64 nM
IC50 (NCI-H2405): 50.7 nM
IC50 (FTC-133): > 64 nM
IC50 (IGR-1): 1.9 nM
IC50 (MKN-45): 2.29 nM
IC50 (ES3): 28.1 nM
IC50 (SN12C): 33.1 nM
IC50 (A498): 26.2 nM
IC50 (D283 Med): > 64 nM
IC50 (BFTC-905): 3.62 nM
IC50 (Hs-578T): > 64 nM
IC50 (NH-12): 27 nM
IC50 (HAL-01): > 64 nM
IC50 (QIMR-WIL): 3.04 nM
IC50 (A4-Fuk): 4.04 nM
IC50 (SKG-IIIa): > 64 nM
IC50 (NCI-H82): 60 nM
IC50 (EFO-21): 21.7 nM
IC50 (ME-180): 21 nM
IC50 (NCI-H441): 33.1 nM
IC50 (NB5): > 64 nM
IC50 (CAL-120): 43.6 nM
